Laboratory results reported in US9422566B2, “Gene cluster for biosynthesis of griselimycin and methylgriselimycin” (SANOFI, priority 2011, dated 2016).

What was measured:
Type in all cases: biochemical, Streptomyces DSM 22643
Conditions in all cases: in vitro ATP-[32P]PPi exchange, amino acid 5 mM, 30° C., nine substrates tested
[1] = system: A domain of module 8 (A8) of NRPS-2; assay: ATP-PPi exchange assay, substrate specificity of A domain A8
Procedure: (§1) In order to gain insight into the specificity of the A domains of modules 2, 5 and 8, the domains were recombinantly produced and their specificity analysed via an ATP/PPi exchange assay in vitro.
(§2) In order to directly investigate A domain substrate specificity, we aimed to express A domains A2, A5 and A8 from the griselimycin pathway as N-terminally His6-tagged proteins from pET28b (+). […]
(§3) Substrate specificity of the 3 purified adenylation domains was evaluated using the established ATP-PPi exchange assay (Mootz and Marahiel. 1997, Thomas et al., 2002). […] As a control, each protein was incubated in the absence of added amino acid, to determine the radioactivity background reaction. […]
(§4) To determine substrate specificity, ATP-[^32P]PPi reactions (100 μl) containing Tris-HCl (pH 7.5, 75 mM), MgCl2 (10 mM), […] (5 mM), amino acid (5 mM), and protein (2 μg) were performed at 30° C. ^32P-tetrasodium pyrophosphate was obtained from Perkin Elmer (NEN #NEX019). […] The charcoal was pelleted by centrifugation prior to being washed twice with the washing solution 0.1 M Na4P2O7 and 0.35 M perchloric acid in H2O), resuspended in H2O (500 μl), and counted by liquid scintillation (Beckman LS6500).

[2] = system: A domain of module 2 (A2) of NRPS-1; assay: ATP-PPi exchange assay, substrate specificity of A domain A2
Procedure: as §1, §2, §3, §4

[3] = system: A domain of module 5 (A5) of NRPS-1; assay: ATP-PPi exchange assay, substrate specificity of A domain A5
Procedure: as §1, §2, §3, §4

| Structure (SMILES) | specificity of the domain A8 for the substrate [1] | specificity of the domain A2 for the substrate [2] | specificity of the domain A5 for the substrate [3] |
| --- | --- | --- | --- |
| C[C@H]1CN[C@H](C(=O)O)C1 [(2S,4R)-4-methylproline] | highest | highest | highest |
| O=C(O)[C@@H]1CCCN1 [L-proline] | high specificity |  |  |
